Results from patent US9546156B2, “N-bicyclic aryl,N'-pyrazolyl urea, thiourea, guanidine cyanoguanidine compounds as TrkA kinase inhibitors” (Array BioPharma Inc., priority 2012, dated 2017).

Columns and labels:
Assay in all cases: Off-target kinase profiling (KinaseProfiler)
Format in all cases: biochemical
Details in all cases: 10 μM, ATP near Km
ARK5 = target: T1, ARK5 (Homo sapiens, UniProt O60285)
T1 construct: purchased Millipore, Inc. (KinaseProfiler service)
Description: (§1) A representative compound (Example 16) of the invention was tested for off-target kinase activity at a concentration of 10 μM by Millipore, Inc. in their KinaseProfiler™ service against all the kinases available in their full kinase panel. The compound was run in duplicate at a concentration of ATP near the Km for each individual kinase according to Millipore's specifications. The results are shown in Table B. Data are reported as percent of control (POC) and are the average of the two replicates.

AURKA = target: T2, AURKA (Homo sapiens, UniProt O14965)
T2 construct: purchased Millipore, Inc. (KinaseProfiler service)
Description: as §1

Bmx = target: T3, Bmx (Homo sapiens, UniProt P51813)
T3 construct: purchased Millipore, Inc. (KinaseProfiler service)
Description: as §1

BrSK1 = target: T4, BrSK1 (Homo sapiens, UniProt Q8TDC3)
T4 construct: purchased Millipore, Inc. (KinaseProfiler service)
Description: as §1

BrSK2 = target: T5, BrSK2 (Homo sapiens, UniProt Q8IWQ3)
T5 construct: purchased Millipore, Inc. (KinaseProfiler service)
Description: as §1

CDK5/p25 = target: T6, CDK5/p25 (Homo sapiens, UniProt Q00535)
T6 construct: purchased Millipore, Inc. (KinaseProfiler service)
Description: as §1

CDK7/cyclinH/MAT1 = target: T7, CDK7/cyclinH/MAT1 (Homo sapiens, UniProt P50613)
T7 construct: purchased Millipore, Inc. (KinaseProfiler service)
Description: as §1

CK1gamma3 = target: T8, CK1gamma3 (Homo sapiens, UniProt Q9Y6M4)
T8 construct: purchased Millipore, Inc. (KinaseProfiler service)
Description: as §1

CLK3 = target: T9, CLK3 (Homo sapiens, UniProt P49761)
T9 construct: purchased Millipore, Inc. (KinaseProfiler service)
Description: as §1

EphA7 = target: T10, EphA7 (Rattus norvegicus, UniProt P54759)
T10 construct: purchased Millipore, Inc. (KinaseProfiler service)
Description: as §1

EphB2 = target: T11, EphB2 (Homo sapiens, UniProt P29323)
T11 construct: purchased Millipore, Inc. (KinaseProfiler service)
T11 sequence (P29323 19-1055): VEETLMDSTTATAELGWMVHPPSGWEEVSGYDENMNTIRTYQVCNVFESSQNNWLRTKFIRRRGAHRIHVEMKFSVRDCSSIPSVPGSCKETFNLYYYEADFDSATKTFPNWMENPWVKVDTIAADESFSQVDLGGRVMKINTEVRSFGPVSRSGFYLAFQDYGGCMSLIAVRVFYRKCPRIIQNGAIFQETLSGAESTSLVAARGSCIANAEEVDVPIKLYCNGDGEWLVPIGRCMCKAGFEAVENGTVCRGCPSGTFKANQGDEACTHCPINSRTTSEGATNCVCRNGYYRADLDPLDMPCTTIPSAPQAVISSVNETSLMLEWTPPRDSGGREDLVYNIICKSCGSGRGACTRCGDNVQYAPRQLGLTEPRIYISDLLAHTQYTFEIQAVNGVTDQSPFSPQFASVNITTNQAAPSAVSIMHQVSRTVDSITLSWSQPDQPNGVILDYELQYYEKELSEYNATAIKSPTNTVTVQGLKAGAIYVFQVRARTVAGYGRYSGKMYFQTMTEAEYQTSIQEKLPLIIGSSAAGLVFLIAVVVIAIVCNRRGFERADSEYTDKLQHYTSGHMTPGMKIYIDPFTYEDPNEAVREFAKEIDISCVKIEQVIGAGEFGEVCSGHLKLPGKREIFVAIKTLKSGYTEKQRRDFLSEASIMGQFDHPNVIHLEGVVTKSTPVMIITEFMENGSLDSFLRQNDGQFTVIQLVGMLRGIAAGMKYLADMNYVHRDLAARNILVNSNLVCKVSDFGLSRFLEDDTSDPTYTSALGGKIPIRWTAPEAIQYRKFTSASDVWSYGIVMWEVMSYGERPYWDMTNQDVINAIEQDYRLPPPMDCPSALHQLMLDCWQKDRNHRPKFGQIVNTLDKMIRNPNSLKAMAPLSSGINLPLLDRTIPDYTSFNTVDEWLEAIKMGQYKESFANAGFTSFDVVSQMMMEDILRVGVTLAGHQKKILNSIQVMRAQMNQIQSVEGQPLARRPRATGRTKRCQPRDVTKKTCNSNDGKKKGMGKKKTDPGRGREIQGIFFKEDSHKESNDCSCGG
Description: as §1

FAK = target: T12, FAK (Homo sapiens, UniProt Q05397)
T12 construct: purchased Millipore, Inc. (KinaseProfiler service)
Description: as §1

FGFR3 = target: T13, FGFR3 (Homo sapiens, UniProt P22607)
T13 construct: purchased Millipore, Inc. (KinaseProfiler service)
T13 sequence (P22607 23-806): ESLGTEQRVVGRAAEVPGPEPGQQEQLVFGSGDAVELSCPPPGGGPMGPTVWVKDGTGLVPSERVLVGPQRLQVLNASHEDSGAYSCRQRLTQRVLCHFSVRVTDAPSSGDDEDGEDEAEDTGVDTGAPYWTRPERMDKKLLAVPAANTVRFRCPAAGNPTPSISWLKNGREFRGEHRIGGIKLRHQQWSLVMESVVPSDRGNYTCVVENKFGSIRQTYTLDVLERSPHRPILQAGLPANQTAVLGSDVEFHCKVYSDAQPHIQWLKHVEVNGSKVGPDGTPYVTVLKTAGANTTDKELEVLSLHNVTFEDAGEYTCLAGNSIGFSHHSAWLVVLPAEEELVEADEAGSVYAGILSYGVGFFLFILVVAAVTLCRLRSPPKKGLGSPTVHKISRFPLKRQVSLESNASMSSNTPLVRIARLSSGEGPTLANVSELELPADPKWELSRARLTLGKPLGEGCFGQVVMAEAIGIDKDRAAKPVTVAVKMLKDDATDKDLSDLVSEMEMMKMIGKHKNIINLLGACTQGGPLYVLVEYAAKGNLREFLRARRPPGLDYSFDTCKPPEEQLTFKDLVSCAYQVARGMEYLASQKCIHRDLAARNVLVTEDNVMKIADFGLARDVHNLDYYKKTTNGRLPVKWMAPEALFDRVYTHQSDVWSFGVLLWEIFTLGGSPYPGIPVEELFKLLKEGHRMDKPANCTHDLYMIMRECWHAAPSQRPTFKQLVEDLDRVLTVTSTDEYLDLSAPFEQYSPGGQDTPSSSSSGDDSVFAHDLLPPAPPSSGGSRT
Description: as §1

FGFR4 = target: T14, FGFR4 (Homo sapiens, UniProt P22455)
T14 construct: purchased Millipore, Inc. (KinaseProfiler service)
Description: as §1

HIPK2 = target: T15, HIPK2 (Homo sapiens, UniProt Q9H2X6)
T15 construct: purchased Millipore, Inc. (KinaseProfiler service)
Description: as §1

Haspin = target: T16, Haspin (Homo sapiens, UniProt Q8TF76)
T16 construct: purchased Millipore, Inc. (KinaseProfiler service)
Description: as §1

Hck = target: T17, Hck (Homo sapiens, UniProt P08631)
T17 construct: purchased Millipore, Inc. (KinaseProfiler service)
Description: as §1

IGF-1R Activated = target: T18, IGF-1R Activated (Homo sapiens, UniProt P08069)
T18 construct: purchased Millipore, Inc. (KinaseProfiler service)
Description: as §1

JAK2 = target: T19, JAK2 (Homo sapiens, UniProt O60674)
T19 construct: purchased Millipore, Inc. (KinaseProfiler service)
T19 sequence (O60674 whole entry): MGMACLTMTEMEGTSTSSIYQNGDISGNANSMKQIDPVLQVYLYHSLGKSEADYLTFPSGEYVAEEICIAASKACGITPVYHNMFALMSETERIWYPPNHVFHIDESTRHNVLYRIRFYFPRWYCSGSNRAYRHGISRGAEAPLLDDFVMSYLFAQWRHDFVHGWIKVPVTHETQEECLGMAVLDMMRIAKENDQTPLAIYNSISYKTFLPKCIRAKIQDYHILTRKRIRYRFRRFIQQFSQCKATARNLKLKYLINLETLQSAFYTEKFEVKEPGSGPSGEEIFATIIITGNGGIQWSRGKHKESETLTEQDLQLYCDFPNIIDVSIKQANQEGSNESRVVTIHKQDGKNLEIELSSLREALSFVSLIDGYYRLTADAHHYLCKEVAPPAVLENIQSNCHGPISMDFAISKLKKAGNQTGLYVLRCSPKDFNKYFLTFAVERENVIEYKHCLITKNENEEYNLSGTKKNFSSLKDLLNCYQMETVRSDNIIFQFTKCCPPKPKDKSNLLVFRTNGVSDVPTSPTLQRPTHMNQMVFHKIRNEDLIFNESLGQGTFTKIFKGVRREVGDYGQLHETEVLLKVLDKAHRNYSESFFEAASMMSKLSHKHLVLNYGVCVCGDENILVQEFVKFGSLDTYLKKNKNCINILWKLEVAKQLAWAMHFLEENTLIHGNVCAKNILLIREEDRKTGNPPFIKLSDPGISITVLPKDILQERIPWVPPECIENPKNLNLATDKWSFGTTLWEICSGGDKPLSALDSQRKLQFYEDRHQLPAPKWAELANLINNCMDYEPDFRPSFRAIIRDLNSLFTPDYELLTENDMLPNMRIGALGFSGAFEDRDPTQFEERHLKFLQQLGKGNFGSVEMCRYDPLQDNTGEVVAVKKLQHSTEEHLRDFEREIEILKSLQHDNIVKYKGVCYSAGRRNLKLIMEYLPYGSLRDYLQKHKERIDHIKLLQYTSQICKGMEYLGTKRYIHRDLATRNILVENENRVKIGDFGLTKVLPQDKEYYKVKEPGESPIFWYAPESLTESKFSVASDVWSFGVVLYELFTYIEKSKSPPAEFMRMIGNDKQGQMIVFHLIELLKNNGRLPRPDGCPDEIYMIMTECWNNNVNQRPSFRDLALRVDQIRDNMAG
Description: as §1

MARK1 = target: T20, MARK1 (Homo sapiens, UniProt Q9P0L2)
T20 construct: purchased Millipore, Inc. (KinaseProfiler service)
Description: as §1

MKK7beta = target: T21, MKK7beta (Homo sapiens, UniProt O14733)
T21 construct: purchased Millipore, Inc. (KinaseProfiler service)
Description: as §1

MLK1 = target: T22, MLK1 (Homo sapiens, UniProt P80192)
T22 construct: purchased Millipore, Inc. (KinaseProfiler service)
Description: as §1

MRCKalpha = target: T23, MRCKalpha (Homo sapiens, UniProt Q5VT25)
T23 construct: purchased Millipore, Inc. (KinaseProfiler service)
Description: as §1

MST1 = target: T24, MST1 (Homo sapiens, UniProt Q13043)
T24 construct: purchased Millipore, Inc. (KinaseProfiler service)
T24 sequence (Q13043 whole entry): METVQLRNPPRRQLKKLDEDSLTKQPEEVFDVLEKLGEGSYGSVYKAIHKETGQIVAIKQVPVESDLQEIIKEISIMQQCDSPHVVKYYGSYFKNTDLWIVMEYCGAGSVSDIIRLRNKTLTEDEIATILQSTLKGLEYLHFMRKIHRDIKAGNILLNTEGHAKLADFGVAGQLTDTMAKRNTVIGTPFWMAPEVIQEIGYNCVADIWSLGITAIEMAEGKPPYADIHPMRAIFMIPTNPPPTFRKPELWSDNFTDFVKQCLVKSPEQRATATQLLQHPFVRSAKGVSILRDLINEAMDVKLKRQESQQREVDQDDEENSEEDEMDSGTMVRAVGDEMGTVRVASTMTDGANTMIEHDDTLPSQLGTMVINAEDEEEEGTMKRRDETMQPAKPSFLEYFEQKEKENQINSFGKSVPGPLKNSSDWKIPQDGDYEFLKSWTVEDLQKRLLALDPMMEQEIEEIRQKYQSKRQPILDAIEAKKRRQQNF
Description: as §1

MST3 = target: T25, MST3 (Homo sapiens, UniProt Q9Y6E0)
T25 construct: purchased Millipore, Inc. (KinaseProfiler service)
Description: as §1

NEK6 = target: T26, NEK6 (Homo sapiens, UniProt Q9HC98)
T26 construct: purchased Millipore, Inc. (KinaseProfiler service)
Description: as §1

PKCeta = target: T27, PKCeta (Homo sapiens, UniProt P24723)
T27 construct: purchased Millipore, Inc. (KinaseProfiler service)
Description: as §1

PKCtheta = target: T28, PKCtheta (Homo sapiens, UniProt Q04759)
T28 construct: purchased Millipore, Inc. (KinaseProfiler service)
Description: as §1

Pim-2 = target: T29, Pim-2 (Homo sapiens, UniProt Q9P1W9)
T29 construct: purchased Millipore, Inc. (KinaseProfiler service)
Description: as §1

Plk2 = target: T30, Plk2 (Homo sapiens, UniProt Q9NYY3)
T30 construct: purchased Millipore, Inc. (KinaseProfiler service)
Description: as §1

Plk3 = target: T31, Plk3 (Homo sapiens, UniProt Q9H4B4)
T31 construct: purchased Millipore, Inc. (KinaseProfiler service)
Description: as §1

ROCK-I = target: T32, ROCK-I (Homo sapiens, UniProt Q13464)
T32 construct: purchased Millipore, Inc. (KinaseProfiler service)
Description: as §1

Ron = target: T33, Ron (Homo sapiens, UniProt Q04912)
T33 construct: purchased Millipore, Inc. (KinaseProfiler service)
Description: as §1

Rse = target: T34, Rse (Homo sapiens, UniProt Q06418)
T34 construct: purchased Millipore, Inc. (KinaseProfiler service)
Description: as §1

Rsk2 = target: T35, Rsk2 (Homo sapiens, UniProt P51812)
T35 construct: purchased Millipore, Inc. (KinaseProfiler service)
Description: as §1

SRC = target: T36, SRC (Homo sapiens, UniProt P12931)
T36 construct: purchased Millipore, Inc. (KinaseProfiler service)
Description: as §1

SRPK2 = target: T37, SRPK2 (Homo sapiens, UniProt P78362)
T37 construct: purchased Millipore, Inc. (KinaseProfiler service)
T37 sequence (P78362 whole entry): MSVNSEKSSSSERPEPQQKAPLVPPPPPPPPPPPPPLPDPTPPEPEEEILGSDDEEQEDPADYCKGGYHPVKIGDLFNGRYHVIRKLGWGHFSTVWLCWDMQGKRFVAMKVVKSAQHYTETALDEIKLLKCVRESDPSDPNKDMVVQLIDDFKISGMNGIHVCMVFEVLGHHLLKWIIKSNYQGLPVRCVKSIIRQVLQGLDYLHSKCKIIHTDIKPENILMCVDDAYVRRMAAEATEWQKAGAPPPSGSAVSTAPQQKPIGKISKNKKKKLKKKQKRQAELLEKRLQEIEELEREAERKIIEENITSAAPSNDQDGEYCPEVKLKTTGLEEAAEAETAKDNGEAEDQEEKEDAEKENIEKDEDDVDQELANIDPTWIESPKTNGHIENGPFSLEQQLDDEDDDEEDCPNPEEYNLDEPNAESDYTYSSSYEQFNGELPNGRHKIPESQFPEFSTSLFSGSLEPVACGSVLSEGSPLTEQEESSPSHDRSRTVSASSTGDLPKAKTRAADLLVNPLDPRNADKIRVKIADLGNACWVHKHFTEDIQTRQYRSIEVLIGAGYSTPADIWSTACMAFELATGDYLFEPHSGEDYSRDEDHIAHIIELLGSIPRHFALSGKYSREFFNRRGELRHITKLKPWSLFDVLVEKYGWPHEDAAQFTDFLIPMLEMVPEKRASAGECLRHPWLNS
Description: as §1

TSSK1 = target: T38, TSSK1 (Homo sapiens, UniProt Q9BXA7)
T38 construct: purchased Millipore, Inc. (KinaseProfiler service)
Description: as §1

ULK2 = target: T39, ULK2 (Homo sapiens, UniProt Q8IYT8)
T39 construct: purchased Millipore, Inc. (KinaseProfiler service)
Description: as §1

WNK2 = target: T40, WNK2 (Homo sapiens, UniProt Q9Y3S1)
T40 construct: purchased Millipore, Inc. (KinaseProfiler service)
Description: as §1

mTOR/FKBP12 = target: T41, mTOR/FKBP12 (Homo sapiens, UniProt P42345)
T41 construct: purchased Millipore, Inc. (KinaseProfiler service)
Description: as §1

T1 sequence (O60285 whole entry): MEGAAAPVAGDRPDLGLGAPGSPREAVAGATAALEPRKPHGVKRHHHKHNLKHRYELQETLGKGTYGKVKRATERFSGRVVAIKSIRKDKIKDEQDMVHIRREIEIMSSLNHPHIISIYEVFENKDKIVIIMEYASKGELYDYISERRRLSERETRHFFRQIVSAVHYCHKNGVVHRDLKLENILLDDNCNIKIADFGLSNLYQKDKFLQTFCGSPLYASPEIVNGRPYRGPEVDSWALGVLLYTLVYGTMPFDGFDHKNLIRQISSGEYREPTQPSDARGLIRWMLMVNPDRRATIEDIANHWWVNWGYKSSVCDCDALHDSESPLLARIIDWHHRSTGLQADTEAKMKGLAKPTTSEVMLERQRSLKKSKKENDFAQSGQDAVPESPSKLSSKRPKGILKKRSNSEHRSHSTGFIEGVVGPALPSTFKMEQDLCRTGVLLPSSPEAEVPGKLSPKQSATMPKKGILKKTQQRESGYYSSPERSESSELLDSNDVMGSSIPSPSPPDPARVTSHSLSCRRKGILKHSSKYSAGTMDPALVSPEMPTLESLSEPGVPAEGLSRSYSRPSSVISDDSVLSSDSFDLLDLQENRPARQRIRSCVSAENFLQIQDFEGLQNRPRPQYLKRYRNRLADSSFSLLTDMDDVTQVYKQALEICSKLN

COCc1ccc2cccc(NC(=O)Nc3c(C)c(-c4cnn(C)c4)nn3-c3ccccc3)c2c1 [Example 16, 1-(1′,4-dimethyl-1-phenyl-1H,1′H-[3,4′-bipyrazol]-5-yl)-3-(7-(methoxymethyl)naphthalen-1-yl)urea]
Avg POC (ARK5): 103.5 POC
Avg POC (AURKA): 128 POC
Avg POC (Bmx): 125 POC
Avg POC (BrSK1): 118 POC
Avg POC (BrSK2): 143 POC
Avg POC (CDK5/p25): 110.5 POC
Avg POC (CDK7/cyclinH/MAT1): 121.5 POC
Avg POC (CK1gamma3): 120 POC
Avg POC (CLK3): 107 POC
Avg POC (EphA7): 107 POC
Avg POC (EphB2): 109 POC
Avg POC (FAK): 113.5 POC
Avg POC (FGFR3): 122 POC
Avg POC (FGFR4): 129 POC
Avg POC (HIPK2): 97 POC
Avg POC (Haspin): 137.5 POC
Avg POC (Hck): 135.5 POC
Avg POC (IGF-1R Activated): 101 POC
Avg POC (JAK2): 181 POC
Avg POC (MARK1): 94.5 POC
Avg POC (MKK7beta): 115.5 POC
Avg POC (MLK1): 106 POC
Avg POC (MRCKalpha): 143.5 POC
Avg POC (MST1): 111.5 POC
Avg POC (MST3): 135 POC
Avg POC (NEK6): 120 POC
Avg POC (PKCeta): 122 POC
Avg POC (PKCtheta): 124.5 POC
Avg POC (Pim-2): 141.5 POC
Avg POC (Plk2): 104.5 POC
Avg POC (Plk3): 103.5 POC
Avg POC (ROCK-I): 118 POC
Avg POC (Ron): 117 POC
Avg POC (Rse): 120.5 POC
Avg POC (Rsk2): 139.5 POC
Avg POC (SRC): 121.5 POC
Avg POC (SRPK2): 105.5 POC
Avg POC (TSSK1): 104.5 POC
Avg POC (ULK2): 102 POC
Avg POC (WNK2): 122.5 POC
Avg POC (mTOR/FKBP12): 113 POC
